From PMC3984256, “A PCNA-Derived Cell Permeable Peptide Selectively Inhibits Neuroblastoma Cell Growth” (PLoS ONE, 2014)
Entries after “also recorded” stand apart in the source; their conditions may differ. Where a SMILES comes first, the peptide text is derived from it. [ ]: non-standard residue; d: D form.

Assays:
[1] = system: PCNA and p21 interaction; assay: PCNA and p21 interaction in vitro; format: binding; settings: data not shown
[2] = system: PCNA and FEN1 co-localization in SK-N-AS NB cells; assay: PCNA/FEN1 co-localization, immunofluorescence; format: cell-based, human; settings: synchronized, 30 µM peptide 6 h after mimosine release
Description: (§1) Cells were seeded at 1×10^5/ml onto a chamber slide and were allowed to attach overnight. To analyze the interaction of PCNA with FEN1, LIGI, or Pol ä, we first synchronize cells at the G1/S boundary. The synchronization is achieved by starving cells in medium containing 0.25% FBS for 24 h. Cells were further cultured in the complete medium containing 400 µM of mimosine for 24 h. To release cells into S phase, cells were washed and incubated in mimosine-free medium containing 30 µM R9-caPep or R9-srbPep for 6 h. We pre-determined that the majority of cells were in the S-phase 6 h after mimosine was removed (data not shown). Cells were fixed in ice-cold methanol:acetone (50%:50%) for 10 min or in 4% paraformaldehyde for 20 min at room temperature. Cells were incubated with a goat polyclonal anti-PCNA antibody (Santa Cruz) and a mouse monoclonal anti-FEN1 antibody (Santa Cruz), a mouse anti-POLD3 antibody (Sigma, St. Louis, MO), or a mouse anti-LIGI antibody (Abcam, Cambridge, MA) for 1 h at room temperature. After being washed with PBS, cells were incubated with Alexa Fluor 488 conjugated anti-mouse IgG and Alexa Fluor 555 conjugated anti-goat IgG antibodies (Invitrogen, Grand Island, NY) for 1 h. Cells were mounted in Vectashield with DAPI (Vector Labs, Burlingame, CA) and visualized by a confocal microscope.

[3] = system: PCNA and LIGI co-localization in SK-N-AS NB cells; assay: PCNA/LIGI co-localization, immunofluorescence; format: cell-based, human; settings: synchronized, 30 µM peptide 6 h after mimosine release
Description: as §1

[4] = system: synchronized cells; assay: Cell cycle analysis of synchronized cells within 6 h (data not shown); format: cell-based; settings: 6 h after mimosine release
Description: (§2) Cells were seeded at 1×10^5/ml. Once attached, cells were treated with or without R9-caPep for 48 hours. Cells were fixed in 60% ethanol and stained with propidium iodide (PI). The cellular PI fluorescence intensity was determined by flow cytometry. The flow cytometry data were analyzed by the FlowJo program to model various cell populations.
as §1, with “After being washed with PBS, cells were incubated with Alexa Fluor 488 conjugated anti-mouse IgG and Alexa Fluor 555 conjugated anti-goat IgG antibodies (Invitrogen, Grand Island, NY) for 1 h. Cells were mounted in Vectashield with DAPI (Vector Labs, Burlingame, CA) and visualized by a confocal microscope.” left out

[5] = system: non-malignant 7SM0032 cells; assay: Cell cycle analysis by PI flow cytometry, 7SM0032; format: cell-based, human; settings: 7SM0032, same treatment (40 µM, 48 h), vs NB cells
Description: as §2

[6] = system: ãH2A.X level; assay: γH2A.X western blot after γ-irradiation; format: cell-based; settings: 30 µM peptide, 2 h pretreatment, 5 Gy
Description: (§3) To study DNA damage and repair, attached cells were pretreated with the peptides for 2 h and were then ã-irradiated (5 Gy). After irradiation, cells were cultured in the presence of the peptides for the indicated time. For analyzing ãH2A.X foci formation, cells were fixed in a solution of methanol and acetone (70%:30% v/v) for 15 min at −20°C. The slides were air-dried for storage and rehydrated in PBS prior to immunostaining. Cells were stained by a mouse monoclonal antibody specific to ãH2A.X (Millipore, Billerica, MA) followed by an Alexa Fluor 488 conjugated anti-mouse IgG antibody. For analyzing Rad51 foci formation, cells were fixed in PBS buffered 4% paraformaldehyde at room temperature for 15 min. After being washed twice by PBS, cells were permeabilized in PBS containing 0.5% triton for 15 min on ice. The fixed and permeabilized cells were stained with a rabbit polyclonal antibody raised against the human Rad51 (Santa Cruz) followed by an Alexa Fluor 488 conjugated anti-rabbit IgG antibody. Stained cells were visualized and imaged by a confocal microscope.
Cell extracts were prepared by dissolving cell pellets directly into the Laemmli sample buffer and resolved in a 4–12% SDS polyacrylamide gel. Resolved proteins were blotted onto a nitrocellulose membrane. The membrane was blocked with 5% nonfat dry milk and incubated with an antibody specific to ãH2A.X (Millipore), total H2A.X (Cell Signaling Technology, Danvers, MA), MYCN (Cell Signaling Technology), or actin (Sigma) in the blocking buffer. After incubation with peroxidase-conjugated secondary antibodies, the protein of interest was detected using an ECL kit purchased from GE Healthcare.

[7] = system: HR-mediated DSB repair, U2OS-derived DR-GFP cells; assay: DSB repair reporter assay, HR (DR-GFP); format: cell-based; settings: 30 µM, GFP-positive cells 3 d after I-SceI transfection, normalized to R9-srbPep, triplicates
Description: (§4) The plasmid pCBASce expresses the rare cutting I-SceI meganuclease. The U2OS-derived cell lines, DR-GFP, EJ5-GFP, and SA-GFP contain a stably transfected reporter gene for DSB repair mediated by HR, end joining (EJ), and single-strand annealing (SSA), respectively. These cell lines were cultured in DMEM medium with 10% FBS at 37°C in the presence of 5% CO2.
(§5) DR-GFP, EJ5-GFP, and SA-GFP cell lines were seeded at 2.5×10^4 cells/cm^2 in a 12-well plate. Once attached overnight, cells were transfected with 1.2 µg of the pCBASce I-SceI expression plasmid mixed with 3.6 µl of Lipofectamine 2000 (Invitrogen) in 200 µl of Optimem media (Invitrogen). After incubation for 3 h, the media containing transfection complexes was aspirated and replaced with fresh media containing 30 µM of the peptides. The HR, EJ, and SSA-mediated DSB repair, indicated by the restoration of a functional GFP gene in the respective cell lines, were quantified by measuring the relative abundance of GFP-positive cells by flow cytometry 3 d after transfection.

[8] = system: SSA-mediated DSB repair, U2OS-derived SA-GFP cells; assay: DSB repair reporter assay, SSA (SA-GFP); format: cell-based; settings: 30 µM, GFP-positive cells 3 d after I-SceI transfection, normalized to R9-srbPep, triplicates
Description: as §4, §5

[9] = system: Rad51 foci in SK-N-BE(2)c cells; assay: Rad51 foci immunofluorescence after γ-irradiation; format: cell-based, human; settings: 2 h peptide pretreatment, 5 Gy
Description: as §3

[10] = system: SK-N-BE(2)c cells; assay: Clonogenic assay; format: cell-based, human; settings: 3 dishes averaged
Description: Three hundred fifty SK-N-BE(2)c cells were seeded onto a 60-mm tissue culture dish. Once attached overnight, cells were treated with or without cisplatin for 2 h. Cells were washed twice with growth medium and were cultured in fresh medium with or without R9-caPep for 3 weeks to allow colony formation. The medium was changed every 3 d. The colonies formed under each treatment conditions were counted after being stained with 0.5% crystal violet.

CC[C@H](C)[C@H](NC(=O)CNC(=O)[C@H](CC(C)C)NC(=O)[C@H](CS)NC(=O)[C@H](CS)NC(=O)[C@@H](CCCNC(=N)N)NC(=O)[C@@H](CCCNC(=N)N)NC(=O)[C@@H](CCCNC(=N)N)NC(=O)[C@@H](CCCNC(=N)N)NC(=O)[C@@H](CCCNC(=N)N)NC(=O)[C@@H](CCCNC(=N)N)NC(=O)[C@@H](CCCNC(=N)N)NC(=O)[C@@H](CCCNC(=N)N)NC(=O)[C@H](N)CCCNC(=N)N)C(=O)N1CCC[C@H]1C(=O)N[C@@H](CCC(=O)O)C(=O)N[C@@H](CCC(N)=O)C(=O)N[C@@H](CCC(=O)O)C(=O)N[C@@H](Cc1ccc(O)cc1)C(=O)O [R9-caPep] (H-[dR][dR][dR][dR][dR][dR][dR][dR][dR]CCLGIPEQEY-OH; N-terminus and C-terminus assumed)
effect on PCNA and p21 interaction [1]: did not block PCNA and p21 interaction in vitro
FEN1 co-localization with PCNA foci [2]: didn't appear to overlap the PCNA foci
LIGI co-localization with PCNA foci [3]: largely blocked
cell cycle progress within 6 h [4]: neither peptide significantly affected cell cycle progress within 6 h
effect on cell cycle progression in non-malignant cells [5]: significantly less effect on cell cycle progression and cell survival
ãH2A.X level within 30 min after irradiation [6]: increased within 30 min following ã-irradiation in cells treated with either peptide
ãH2A.X level 48 h after irradiation ([6]; 48 h): remained elevated
HR-mediated DNA repair [7]: significantly inhibited HR-mediated DNA repair
SSA-mediated DNA repair [8]: only small effects on EJ or SSA; also recorded: slightly enhances DNA repair through SSA
number of Rad51-positive cells at 4 h ([9]; 4 h after irradiation): reduced the number of Rad51-positive cells at 4 h after ã-irradiation
Rad51 background staining at 48 h ([9]; 48 h after irradiation): strong and diffused background staining of Rad51
Rad51 foci at 48 h ([9]; 48 h after irradiation): Rad51 foci remain visible
reduction of number of colonies, sequential cisplatin then R9-caPep ([10]; 1 µM cisplatin 2 h, then 20 µM R9-caPep 3 weeks): about 80%
reduction of number of colonies, single agent ([10]; R9-caPep alone 20 µM 3 weeks, or cisplatin alone 1 µM 2 h): less than 30%
